Experimental data taken from PubChem BioAssay (NCI).
Values joined by “and” are separate entries in the source; they are usually repeats but may differ in a detail not shown here. Equal values may be shown once.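 Dose response: 5 concentrations. Exposure: 48 h. Format: 96-well plates. Endpoint: linear interpolation; highest concentration if not reached. At the GI50, growth is halved. The concentration for full growth arrest is given as TGI.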

Legend:
Experiment in all cases: inhibition of tumour cell growth, NCI panel, 48 h
A549 NSCLC = system: A549 NSCLC
DU-145 prostate = system: DU-145 prostate
HL-60(TB) leukemia = system: HL-60(TB) leukemia
HS 578T breast = system: HS 578T breast
HT29 colon = system: HT29 colon
KM12 colon = system: KM12 colon
NCI-H522 lung = system: NCI-H522 lung
OVCAR-3 ovarian = system: OVCAR-3 ovarian
OVCAR-5 ovarian = system: OVCAR-5 ovarian
RPMI-8226 leukemia = system: RPMI-8226 leukemia

Row | Compound | GI50 (A549 NSCLC) | TGI (A549 NSCLC) | GI50 (DU-145 prostate) | TGI (DU-145 prostate) | GI50 (HL-60(TB) leukemia) | TGI (HL-60(TB) leukemia) | GI50 (HS 578T breast) | TGI (HS 578T breast) | GI50 (HT29 colon) | TGI (HT29 colon) | GI50 (KM12 colon) | TGI (KM12 colon) | GI50 (NCI-H522 lung) | TGI (NCI-H522 lung) | GI50 (OVCAR-3 ovarian) | TGI (OVCAR-3 ovarian) | GI50 (OVCAR-5 ovarian) | TGI (OVCAR-5 ovarian) | GI50 (RPMI-8226 leukemia) | TGI (RPMI-8226 leukemia)
1 | Cn1c2ccccc2c2nnc(NNCc3ccccn3)nc21 | 0.414 µM | 16.4 µM | 0.312 µM | 11 µM | 0.318 µM | 3.13 µM | 1.44 µM | 16.7 µM | 0.526 µM | 22.9 µM | 0.478 µM | 14.2 µM | 0.546 µM | 18.1 µM | 0.325 µM | 7.12 µM | 1.01 µM | 15.3 µM | 0.589 µM | 18.4 µM
2 | COc1ccc2nccc(/C=C/c3ccnc4ccc(OC)cc34)c2c1 | > 100 µM | > 100 µM | > 42.4 µM | > 63.4 µM | > 50.8 µM | > 86.5 µM | 23.6 µM | 90.1 µM | > 69.9 µM | > 100 µM | > 73.1 µM | > 100 µM | 26.9 µM | 89.2 µM | > 92 µM | > 100 µM | > 82.2 µM | > 100 µM | 17.8 µM | 39.9 µM
3 | CCc1ncnc2cc(OCC3CO3)c(OC)cc12 (configuration not stated) | – | > 100 µM | – | > 100 µM | – | – | – | 42 µM | – | > 100 µM | – | 49.3 µM | – | 9.94 µM | – | > 100 µM | – | > 100 µM | – | 5.38 µM
4 | Nc1ncnc2nn(C3OC(CO)C(O)C3O)nc12 (configuration not stated) | – | > 64 µM | – | > 45.4 µM | – | 23.6 µM | – | > 100 µM | – | > 100 µM | – | > 100 µM | – | > 100 µM | – | > 41.1 µM | – | > 95.3 µM | – | 26.5 µM
5 | CN(C)c1ccc(/C=N/NC(=O)c2cccc3ccccc23)c(Cl)c1 | 0.926 µM | > 100 µM | 4.07 µM | > 100 µM | 0.46 µM | 3.64 µM | 1.27 µM | > 100 µM | 0.503 µM | 15.8 µM | 1.01 µM | > 100 µM | 1.12 µM | 39.4 µM | 0.865 µM | 13.5 µM | 24.1 µM | > 100 µM | 2.19 µM | > 100 µM
6 | CN1CCN(c2ccc(C(=O)Nc3cccc(C#Cc4cccc5[nH]nc(N)c45)c3)cc2C(F)(F)F)CC1 | 0.767 µM | 2.02 µM | 1.08 µM | 3.2 µM | 0.866 µM | 3.08 µM | 0.847 µM | 3.4 µM | 0.715 µM | 1.81 µM | 0.808 µM | 1.95 µM | 0.566 µM | 1.3 µM | 1.38 µM | 4.73 µM | 0.959 µM | 3.27 µM | 1.45 µM | 4.06 µM
7 | C[C@]12CC[C@@H]3c4ccc(O)cc4CC[C@H]3[C@@H]1CC[C@@H]2NS(=O)(=O)c1ccc2ccccc2c1 | 3.24 µM | 13.2 µM | 4.14 µM | 17.5 µM | 3.31 µM | 13.7 µM | 2.21 µM | 7.14 µM | 2.47 µM | 6.11 µM | 1.92 µM | 4.06 µM | – | – | 2.63 µM | 7.3 µM | 3.4 µM | 13.4 µM | 2.93 µM | 9.94 µM
8 | CN(C)CCNc1nc2ccccc2c2occc12 | 44.7 µM | > 100 µM | 32 µM | > 100 µM | 49.6 µM | > 100 µM | 99.4 µM | > 100 µM | – | – | 51.7 µM | > 100 µM | 62.3 µM | > 100 µM | 97.2 µM | > 100 µM | 37.2 µM | 88.4 µM | 58 µM | > 100 µM
9 | CCN1C(=O)N(CC)C2C1NN=c1s/c(=C\c3cccc([N+](=O)[O-])c3)c(=O)n12 (configuration not stated) | 0.181 µM | > 100 µM | 0.101 µM | > 100 µM | 0.0496 µM | 0.21 µM | 0.0502 µM | > 100 µM | 0.0387 µM | > 100 µM | 0.0404 µM | > 100 µM | 0.0427 µM | 3.4 µM | 0.0575 µM | 0.399 µM | 0.324 µM | > 100 µM | 0.127 µM | > 100 µM
10 | Cc1ccc(C)c2c(N=Nc3ccccc3[N+](=O)[O-])c(O)[nH]c12 | – | > 100 µM | – | > 100 µM | – | > 100 µM | – | > 100 µM | – | – | – | > 100 µM | – | > 100 µM | – | > 100 µM | – | > 100 µM | – | > 100 µM
11 | CC(=O)NC1=C(Sc2ccc(Cl)cc2)C(=O)c2ccccc2C1=O | – | > 100 µM | – | 30.5 µM | – | 1.63 µM | – | 61.6 µM | – | 25.6 µM | – | 16.6 µM | – | 1.18 µM | – | 7.07 µM | – | 23.9 µM | – | 3.65 µM
12 | CC(C)(C)OC(=O)NCCCCCCCCCCn1c2c(c3ccccc3c1=O)C(=O)c1ccccc1-2 | > 100 µM | > 100 µM | 96.6 µM | > 100 µM | 32.6 µM | > 100 µM | 24.6 µM | > 100 µM | > 100 µM | > 100 µM | > 100 µM | > 100 µM | 86.1 µM | > 100 µM | > 100 µM | > 100 µM | > 100 µM | > 100 µM | 79.7 µM | > 100 µM
13 | C[C@@](O)(/C=C/[C@H]1CC=CC(=O)O1)[C@@H](C[C@@H](O)\C=C/C=C\C=C\CO)OP(=O)(O)O | 13.1 µM | 49.6 µM and 57 µM | – | 32.5 µM | – | 2.99 µM | – | 22.6 µM | – | 6.33 µM | – | 32.2 µM and 37.8 µM | – | 66.1 µM and 60.1 µM | 12.1 µM and 2.94 µM | 27.7 µM and 12.7 µM | 11.5 µM | 19.1 µM and 15 µM | – | 8.5 µM
14 | Clc1ccc(N2CCC(N3CCCC3)CC2)cc1-c1nc2ccccc2[nH]1 | 27.2 µM | > 84.4 µM | 36.7 µM | > 100 µM | 23.5 µM | 50.1 µM | 16.8 µM | 51.7 µM | 15.1 µM | 35.8 µM | 22.6 µM | 55.2 µM | 19.1 µM | 38.7 µM | 17.8 µM | 40.4 µM | 26.5 µM | > 69.4 µM | 20.9 µM | 53.8 µM
